Experimental data taken from patent US8063071B2 (GlaxoSmithKline, LLC, priority 2007, dated 2011).
pIC50: −log10 of the molar value. Structures can show the parent of a compound that is named as a salt.

Columns and labels:
[1] = biological target: T1, Recombinant human IKKβ (residues 1-737) (Homo sapiens, UniProt O14920); test: IKK2 assay (TR-FRET); type: biochemical; details: ATP 1 μM final, read-out: pIC50 against IKK2 (converted)
T1 construct: Recombinant human IKKβ (residues 1-737); GST (C); made in house
T1 sequence (O14920 1-737): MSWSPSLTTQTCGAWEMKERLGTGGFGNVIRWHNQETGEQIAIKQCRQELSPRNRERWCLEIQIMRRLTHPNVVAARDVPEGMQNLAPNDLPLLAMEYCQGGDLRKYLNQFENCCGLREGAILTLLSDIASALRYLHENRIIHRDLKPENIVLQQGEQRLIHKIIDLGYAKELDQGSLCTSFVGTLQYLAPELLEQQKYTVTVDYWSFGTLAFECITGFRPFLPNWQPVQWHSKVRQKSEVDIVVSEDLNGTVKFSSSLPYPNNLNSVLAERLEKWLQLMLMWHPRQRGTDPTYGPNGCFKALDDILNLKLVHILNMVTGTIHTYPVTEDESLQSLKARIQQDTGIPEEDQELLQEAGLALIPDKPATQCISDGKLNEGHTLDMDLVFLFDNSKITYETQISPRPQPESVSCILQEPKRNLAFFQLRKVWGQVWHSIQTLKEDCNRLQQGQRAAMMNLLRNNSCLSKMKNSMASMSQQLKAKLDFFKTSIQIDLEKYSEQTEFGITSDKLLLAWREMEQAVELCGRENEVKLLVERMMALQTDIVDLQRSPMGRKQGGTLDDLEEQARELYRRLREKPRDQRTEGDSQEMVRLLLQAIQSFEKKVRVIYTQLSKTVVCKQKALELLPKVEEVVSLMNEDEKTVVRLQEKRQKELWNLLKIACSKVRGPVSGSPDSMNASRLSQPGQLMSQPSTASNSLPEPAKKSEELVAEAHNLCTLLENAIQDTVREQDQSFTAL
In short: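 TR-FRET readout (665 nm over 620 nm Eu reference) of GST-IB Ser32/36 phosphorylation after 60 min detection. Reaction: 1 μM ATP, 25 nM substrate, 0.5-5 nM GST-fused IKKβ 1-737 from baculovirus, pH 7.4 HEPES buffer, 1.7% DMSO, 15 min room temperature, EDTA-terminated.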

[2] = tested on: human monocyte stimulated cytokine production (TNF-α); test: Monocyte assay (LPS-stimulated TNF-α production); type: cell-based; details: for pIC50: 24 h, 200 ng/mL LPS, TNF-α by ELISA; for inhibition at 0.3 µM: read-out: inhibition at 300 nM in the monocyte assay
In short: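 TNF-α release was measured by ELISA after 24 hrs at 37 C. Cells were stimulated with 200 ng/mL E. coli LPS, with compound added 30 minutes beforehand (0.1% DMSO vehicle). Cells were Ficoll/MACS-isolated CD14+ human monocytes adhered at 1×10^6 cells/mL, and viability was checked by trypan blue.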

SMILES	IC50 [1] [µM]	pIC50 [2]	inhibition at 0.3 µM [2] [%]
CCS(=O)(=O)N1CCC(c2c[nH]c3c(C(N)=O)cc(-c4csc(CN(C)CCO)c4)cc23)CC1 [Example 75, 3-[1-(ethylsulfonyl)-4-piperidinyl]-5-(5-{[(2-hydroxyethyl)(methyl)amino]methyl}-3-thienyl)-1H-indole-7-carboxamide trifluoroacetate]	≤ 10	≥ 5.82	
CCNCc1cc(-c2cc(C(N)=O)c3[nH]cc(C4CCN(S(=O)(=O)CC)CC4)c3c2)ccc1F [Example 271, 5-{3-[(ethylamino)methyl]-4-fluorophenyl}-3-[1-(ethylsulfonyl)-4-piperidinyl]-1H-indole-7-carboxamide trifluoroacetate]	≤ 10	≥ 5.82	
CCS(=O)(=O)N1CCC(c2c[nH]c3c(C(N)=O)cc(-c4cccc(C(C)N5CCCC5)c4)cc23)CC1 (stereo not shown) [Example 296, 3-[1-(ethylsulfonyl)-4-piperidinyl]-5-{3-[1-(1-pyrrolidinyl)ethyl]phenyl}-1H-indole-7-carboxamide trifluoroacetate]	≤ 10	≥ 5.82	
CCS(=O)(=O)N1CCC(c2c[nH]c3c(C(N)=O)cc(-c4ccc(CNC(C)C)cc4)cc23)CC1 [Example 140, 3-[1-(ethylsulfonyl)-4-piperidinyl]-5-(4-{[(1-methylethyl)amino]methyl}phenyl)-1H-indole-7-carboxamide]	≤ 10	< 6.00	
CCS(=O)(=O)N1CCC(c2c[nH]c3c(C(N)=O)cc(-c4ccc(CNC(=O)c5ccncc5)cc4)cc23)CC1 [Example 129, 3-[1-(ethylsulfonyl)-4-piperidinyl]-5-(4-{[(4-pyridinylcarbonyl)amino]methyl}phenyl)-1H-indole-7-carboxamide]	≤ 10	≥ 5.82	
CCS(=O)(=O)N1CCC(c2c[nH]c3c(C(N)=O)cc(-c4csc(CCNCC(C)C)c4)cc23)CC1 [Example 222, 3-[1-(ethylsulfonyl)-4-piperidinyl]-5-(5-{2-[(2-methylpropyl)amino]ethyl}-3-thienyl)-1H-indole-7-carboxamide trifluoroacetate]	≤ 10	≥ 5.82	
CCS(=O)(=O)N1CCC(c2c[nH]c3c(C(N)=O)cc(-c4cccc(CCNCC(C)C)c4)cc23)CC1 [Example 345, 3-[1-(ethylsulfonyl)-4-piperidinyl]-5-(3-{2-[(2-methylpropyl)amino]ethyl}phenyl)-1H-indole-7-carboxamide trifluoroacetate]	≤ 10		0 to 60
CC(C)S(=O)(=O)N1CCC(c2c[nH]c3c(C(N)=O)cc(-c4csc(CN5CC[C@H](O)C5)c4)cc23)CC1 [Example 395, 5-(5-{[(3S)-3-hydroxy-1-pyrrolidinyl]methyl}-3-thienyl)-3-{1-[(1-methylethyl)sulfonyl]-4-piperidinyl}-1H-indole-7-carboxamide]	≤ 10	≥ 5.82	
CCS(=O)(=O)N1CCC(c2c[nH]c3c(C(N)=O)cc(-c4cccc(CNS(=O)(=O)c5cc(Cl)sc5Cl)c4)cc23)CC1 [Example 375, 5-[3-({[(2,5-dichloro-3-thienyl)sulfonyl]amino}methyl)phenyl]-3-[1-(ethylsulfonyl)-4-piperidinyl]-1H-indole-7-carboxamide]	≤ 10	< 6.00	
CCS(=O)(=O)N1CCC(c2c[nH]c3c(C(N)=O)cc(-c4cccc(CN[C@H](C)C(C)C)c4)cc23)CC1 [Example 162, 5-[3-({[(1R)-1,2-dimethylpropyl]amino}methyl)phenyl]-3-[1-(ethylsulfonyl)-4-piperidinyl]-1H-indole-7-carboxamide trifluoroacetate]	≤ 10	≥ 5.82	
CCS(=O)(=O)N1CCC(c2c[nH]c3c(C(N)=O)cc(-c4cccc(CNC[C@H](C)O)c4)cc23)CC1 [Example 22, 3-[1-(ethylsulfonyl)-4-piperidinyl]-5-[3-({[(2S)-2-hydroxypropyl]amino}methyl)phenyl]-1H-indole-7-carboxamide]	≤ 10	≥ 5.82	
CCS(=O)(=O)N1CCC(c2c[nH]c3c(C(N)=O)cc(-c4cccc(N)c4)cc23)CC1 [Example 166, 5-(3-aminophenyl)-3-[1-(ethylsulfonyl)-4-piperidinyl]-1H-indole-7-carboxamide]	≤ 10	≥ 5.82	
CCCCNCc1ccc(-c2cc(C(N)=O)c3[nH]cc(C4CCN(S(=O)(=O)CC)CC4)c3c2)s1 [Example 187, 5-{5-[(butylamino)methyl]-2-thienyl}-3-[1-(ethylsulfonyl)-4-piperidinyl]-1H-indole-7-carboxamide]	≤ 10		0 to 60
CCS(=O)(=O)N1CCC(c2c[nH]c3c(C(N)=O)cc(-c4cnn(CCN5CCC(N(C)C)CC5)c4)cc23)CC1 [Example 50, 5-(1-{2-[4-(dimethylamino)-1-piperidinyl]ethyl}-1H-pyrazol-4-yl)-3-[1-(ethylsulfonyl)-4-piperidinyl]-1H-indole-7-carboxamide trifluoroacetate]	≤ 10	< 6.00	
CCS(=O)(=O)N1CCC(c2c[nH]c3c(C(N)=O)cc(-c4ccc(CNC5CCCC5)cc4)cc23)CC1 [Example 143, 5-{4-[(cyclopentylamino)methyl]phenyl}-3-[1-(ethylsulfonyl)-4-piperidinyl]-1H-indole-7-carboxamide trifluoroacetate]	≤ 10	< 6.00	
CCS(=O)(=O)N1CCC(c2c[nH]c3c(C(N)=O)cc(-c4csc(CN(C)CCS(=O)(=O)c5ccccc5)c4)cc23)CC1 [Example 45, 3-[1-(ethylsulfonyl)-4-piperidinyl]-5-[5-({methyl[2-(phenylsulfonyl)ethyl]amino}methyl)-3-thienyl]-1H-indole-7-carboxamide trifluoroacetate]	≤ 10		0 to 60
CCS(=O)(=O)N1CCC(c2c[nH]c3c(C(N)=O)cc(-c4ccc(CNCCOC)s4)cc23)CC1 [Example 188, 3-[1-(ethylsulfonyl)-4-piperidinyl]-5-[5-({[2-(methyloxy)ethyl]amino}methyl)-2-thienyl]-1H-indole-7-carboxamide]	≤ 10		0 to 60
CCS(=O)(=O)N1CCC(c2c[nH]c3c(C(N)=O)cc(-c4ccc(CNC(=O)C5CCCC5)cc4)cc23)CC1 [Example 130, 5-(4-{[(cyclopentylcarbonyl)amino]methyl}phenyl)-3-[1-(ethylsulfonyl)-4-piperidinyl]-1H-indole-7-carboxamide]	≤ 10	≥ 5.82	
CCS(=O)(=O)N1CCC(c2c[nH]c3c(C(N)=O)cc(-c4cccc(CNS(=O)(=O)c5cccc(F)c5)c4)cc23)CC1 [Example 373, 3-[1-(ethylsulfonyl)-4-piperidinyl]-5-[3-({[(3-fluorophenyl)sulfonyl]amino}methyl)phenyl]-1H-indole-7-carboxamide]	≤ 10	≥ 5.82	
CCS(=O)(=O)N1CCC(c2c[nH]c3c(C(N)=O)cc(-c4csc(CN5CCC(N6CCCC6)CC5)c4)cc23)CC1 [Example 392, 3-[1-(ethylsulfonyl)-4-piperidinyl]-5-(5-{[4-(1-pyrrolidinyl)-1-piperidinyl]methyl}-3-thienyl)-1H-indole-7-carboxamide trifluoroacetate]	≤ 10	< 6.00	
CCS(=O)(=O)N1CCC(c2c[nH]c3c(C(N)=O)cc(-c4cccc(CNC[C@@H]5CCCO5)c4)cc23)CC1 [Example 307, 3-[1-(ethylsulfonyl)-4-piperidinyl]-5-[3-({[(2S)-tetrahydro-2-furanylmethyl]amino}methyl)phenyl]-1H-indole-7-carboxamide trifluoroacetate]	≤ 10	≥ 5.82	
CCS(=O)(=O)N1CCC(c2c[nH]c3c(C(N)=O)cc(-c4csc(CNC5CC5)c4)cc23)CC1 [Example 109, 5-{5-[(cyclopropylamino)methyl]-3-thienyl}-3-[1-(ethylsulfonyl)-4-piperidinyl]-1H-indole-7-carboxamide trifluoroacetate]	≤ 10	≥ 5.82	
CCS(=O)(=O)N1CCC(c2c[nH]c3c(C(N)=O)cc(-c4csc(CN(C)Cc5ccccc5)c4)cc23)CC1 [Example 74, 3-[1-(ethylsulfonyl)-4-piperidinyl]-5-(5-{[methyl(phenylmethyl)amino]methyl}-3-thienyl)-1H-indole-7-carboxamide trifluoroacetate]	≤ 10		0 to 60
